Assay results: patent US9115101B2 (Genentech, Inc., priority 2012, dated 2015)

Each molecule was assayed against T1, RORc ligand binding domain (Homo sapiens, UniProt P51449) (assay: In Vitro RORc Ligand Binding Assay (25-[3H]hydroxycholesterol radioligand filtration)). Details: In Vitro RORc Ligand Binding Assay; Table 4; read-out: RORc IC50.
T1 construct: host or cells: E. coli
T1 sequence (P51449 269-508 limits assumed): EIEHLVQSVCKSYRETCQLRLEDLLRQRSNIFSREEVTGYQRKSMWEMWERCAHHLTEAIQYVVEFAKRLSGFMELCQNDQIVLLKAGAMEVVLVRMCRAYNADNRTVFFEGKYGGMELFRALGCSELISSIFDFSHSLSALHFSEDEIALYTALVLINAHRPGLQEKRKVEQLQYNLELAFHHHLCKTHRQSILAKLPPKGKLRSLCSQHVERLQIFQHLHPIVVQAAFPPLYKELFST

Row | SMILES | IC50 [nM]
1 | CC(=O)N1CCN(c2ccc(CN3[C@@H](C)CCC(c4ccc(C#N)cc4)S3(=O)=O)c(F)c2)CC1 (single isomer, unassigned) [Example 173] | 2060
2 | C[C@H]1CCC(c2ccccc2)S(=O)(=O)N1Cc1ccc(C(=O)NCCN2CCCCC2=O)cc1 (stereo partly drawn) [Example 277, 4-((3S)-Methyl-1,1-dioxo-6-phenyl-[1,2]thiazinan-2-ylmethyl)-N-[2-(2-oxo-piperidin-1-yl)-ethyl]-benzamide] | 5110
3 | C[C@H]1CCC(c2ccccc2)S(=O)(=O)N1Cc1ccc(C(=O)NC2CCCC(O)C2)cc1 (stereo partly drawn) [Example 273, N-(3-Hydroxy-cyclohexyl)-4-((3S)-methyl-1,1-dioxo-6-phenyl-[1,2]thiazinan-2-ylmethyl)-benzamide] | 5470
4 | CC(=O)N1CCN(c2ccc(CN3[C@@H](C)CCC(c4cccc(Cl)c4)S3(=O)=O)c(F)c2)CC1 (single isomer, unassigned) [Example 185] | 25
5 | O=S1(=O)C(c2ccccc2)CC2(CC2)CN1Cc1ccc(N2CCC(n3cnnc3)CC2)cc1F (single isomer, unassigned) [Example 257, 5-[2-Fluoro-4-(4-[1,2,4]triazol-4-yl-piperidin-1-yl)-benzyl]-7-phenyl-6-thia-5-aza-spiro[2.5]octane 6,6-dioxde] | 54
6 | C[C@H]1CCC(c2ccccc2)S(=O)(=O)N1Cc1ccc(C(=O)NCC2COC2)cc1 (stereo partly drawn) [Example 269, 4-((3S)-Methyl-1,1-dioxo-6-phenyl-[1,2]thiazinan-2-ylmethyl)-N-oxetan-3-ylmethyl-benzamide] | 1670
7 | CC(=O)N1CCN(c2ccc(CN3CC4(COC4)CC(c4ccccc4)S3(=O)=O)c(F)c2)CC1 (single isomer, unassigned) [Example 266, 1-(4-(4-((7,7-dioxido-8-phenyl-2-oxa-7-thia-6-azaspiro[3.5]nonan-6-yl)methyl)-3-fluorophenyl)piper-azin-1-yl)ethanone] | 4330
8 | C[C@H]1CCC(c2ccccc2)S(=O)(=O)N1Cc1ccc(N2CC(C3CCOCC3)C2)cc1F (single isomer, unassigned) [Example 108] | 33
9 | CC(=O)N1CCN(c2ccc(CN3[C@@H](C)CCC(c4ccccc4)S3(=O)=O)c(C)c2)CC1 (single isomer, unassigned) [Example 132] | 3930
10 | CC(=O)N1CCN(c2ccc(CN3[C@@H](C)CC(c4ccccc4)S3(=O)=O)c(F)c2)CC1 (single isomer, unassigned) [Example 63] | 570
11 | CC(=O)N1CCN(c2ccc(CN3[C@@H](C)CCC(c4ccccc4C#N)S3(=O)=O)c(F)c2)CC1 (single isomer, unassigned) [Example 207] | 1810
12 | CC(=O)N1CCN(c2ccc(CN3[C@H](C)CCC(c4ccccc4)S3(=O)=O)cc2)CC1 (single isomer, unassigned) [Example 47] | 299
13 | C[C@H]1CCC(c2ccccc2)S(=O)(=O)N1Cc1ccc(NC2CCN(S(C)(=O)=O)CC2)cc1F (single isomer, unassigned) [Example 166] | 25
14 | C[C@H](O)C(=O)N1CCN(c2ccc(CN3[C@@H](C)CCC(c4ccccc4)S3(=O)=O)c(F)c2)CC1 (single isomer, unassigned) [Example 79] | 82
15 | COCC(=O)N1CCN(c2ccc(CN3[C@@H](C)CCC(c4ccccc4)S3(=O)=O)c(F)c2)CC1 (single isomer, unassigned) [Example 74] | 29
16 | CC[C@H]1CCC(c2ccccc2)S(=O)(=O)N1Cc1ccc(N2CCN(C(C)=O)CC2)cc1F (single isomer, unassigned) [Example 194] | 18
17 | C[C@H]1CCC(c2ccccc2)S(=O)(=O)N1Cc1ccc(OC2CCN(S(C)(=O)=O)CC2)cc1F (single isomer, unassigned) [Example 33] | 13
18 | C[C@H]1CCC(c2ccccc2)S(=O)(=O)N1Cc1ccc(N2CCC(n3ncnn3)CC2)cc1F (single isomer, unassigned) [Example 244] | 24
19 | CC1=C(N2CCN(c3ccc(CN4[C@@H](C)CCC(c5ccccc5)S4(=O)=O)c(F)c3)CC2)CCC1=O (stereo partly drawn) [Example 189, 3-{4-[3-Fluoro-4-((3S)-3-methyl-1,1-dioxo-6-phenyl-[1,2]thiazinan-2-ylmethyl)-phenyl]-piperazin-1-yl}-2-methyl-cyclopent-2-enone] | 59
20 | CC(=O)N1CCN(c2ccc(CN3[C@@H](C)CCC(c4cccc(F)c4)S3(=O)=O)c(F)c2)CC1 (single isomer, unassigned) [Example 127] | 58
21 | CO[C@@H](C)C(=O)N1CCCN(c2ccc(CN3[C@@H](C)CCC(c4ccccc4)S3(=O)=O)c(F)c2)CC1 (single isomer, unassigned) [Example 92] | 154
22 | C[C@H]1CCC(c2ccccc2)S(=O)(=O)N1Cc1ccc(N2CCC(n3ccnn3)CC2)cc1F (single isomer, unassigned) [Example 218] | 11
23 | C[C@H]1CCC(c2ccccc2)S(=O)(=O)N1Cc1ccc(N2CCN(C(=O)C3CC3)CC2)cc1 (single isomer, unassigned) [Example 60] | 15
24 | C[C@H]1CCC(c2ccccc2)S(=O)(=O)N1Cc1ccc(N2CCCN(C(=O)CC#N)CC2)cc1F (single isomer, unassigned) [Example 82] | 22
25 | CC(=O)N1CCN(c2ccc(CN3[C@@H](C)CCC(c4ccccc4C)S3(=O)=O)c(F)c2)CC1 (single isomer, unassigned) [Example 206] | 14
26 | C[C@H]1CCC(c2ccccc2)S(=O)(=O)N1Cc1ccc(N2CCC(c3ncno3)CC2)cc1F (single isomer, unassigned) [Example 220] | 43

Next, values leading:

Row | IC50 [nM] | SMILES
27 | 3180 | CC(=O)N1CCN(c2ccc(CN3[C@@H](C)CCC(c4ccccc4)S3(=O)=O)c(F)c2)C[C@H]1C(=O)NC(C)C (stereo partly drawn) [Example 394, (S)-1-Acetyl-4-[3-fluoro-4-((3S)-methyl-1,1-dioxo-6-phenyl-[1,2]thiazinan-2-ylmethyl)-phenyl]-piperazine-2-carboxylic acid isopropylamide]
28 | 86 | N#CCC(=O)N1CCN(c2ccc(CN3CCCCC(c4ccccc4)S3(=O)=O)c(F)c2)CC1 (single isomer, unassigned) [Example 303, 3-{4-[4-(1,1-Dioxo-7-phenyl-[1,2]thiazepan-2-ylmethyl)-3-fluoro-phenyl]-piperazin-1-yl}-3-oxo-propionitrile]
29 | 29 | O=C(CO)N1CCN(c2ccc(CN3CCCCC(c4ccccc4)S3(=O)=O)c(F)c2)CC1 (single isomer, unassigned) [Example 308, 1-{4-[4-(1,1-Dioxo-7-phenyl-[1,2]thiazepan-2-ylmethyl)-3-fluoro-phenyl]-piperazin-1-yl}-2-hydroxy-ethanone]
30 | 54 | CC(=O)N1CCN(c2ccc(CN3CC(C)CCC(c4ccccc4)S3(=O)=O)c(F)c2)CC1 (single isomer, unassigned) [Example 340, 1-{4-[3-Fluoro-4-(4-methyl-1,1-dioxo-7-phenyl-[1,2]thiazepan-2-ylmethyl)-phenyl]-piperazin-1-yl}-ethanone]
31 | 2360 | CC1CN(C(=O)c2ccc(CN3[C@@H](C)CCC(c4ccccc4)S3(=O)=O)cc2)CC(=O)N1 (stereo partly drawn) [Example 368, 6-Methyl-4-[4-((3S)-methyl-1,1-dioxo-6-phenyl-[1,2]thiazinan-2-ylmethyl)-benzoyl]-piperazin-2-one]
32 | 240 | CC(=O)N1CCN(c2ccc(CN3[C@@H](C)CCC(c4ccccc4)S3(=O)=O)c(F)c2)C[C@H]1C#N (stereo partly drawn) [Example 385, (S)-1-Acetyl-4-[3-fluoro-4-((3S)-methyl-1,1-dioxo-6-phenyl-[1,2]thiazinan-2-ylmethyl)-phenyl]-piperazine-2-carbonitrile]
33 | 75 | O=S1(=O)C(c2ccccc2)CCCCN1Cc1ccc(N2CCC(n3cnnc3)CC2)cc1 (single isomer, unassigned) [Example 342, 7-Phenyl-2-[4-(4-[1,2,4]triazol-4-yl-piperidin-1-yl)-benzyl]-[1,2]thiazepane 1,1-dioxide]
34 | 3170 | C[C@H]1CCC(c2ccccc2)S(=O)(=O)N1Cc1ccc(C(=O)N2CC3(CCCOC3)C2)cc1 (stereo partly drawn) [Example 356, [4-((3S)-Methyl-1,1-dioxo-6-phenyl-[1,2]thiazinan-2-ylmethyl)-phenyl]-(6-oxa-2-aza-spiro[3.5]non-2-yl)-methanone]

Same assay, conditions: read-out: RORc IC50

Row | IC50 [nM] | SMILES
35 | 98 | C[C@H]1CCC(c2ccccc2)S(=O)(=O)N1Cc1ccc(NC(=O)C2CN(S(C)(=O)=O)C2)cc1F (stereo partly drawn) [Example 458, 1-Methanesulfonyl-azetidine-3-carboxylic acid [3-fluoro-4-((3S)-methyl-1,1-dioxo-6-phenyl-[1,2]thiazinan-2-ylmethyl)-phenyl]-amide]
36 | 148 | CONC(=O)[C@@H]1CN(c2ccc(CN3[C@@H](C)CCC(c4ccccc4)S3(=O)=O)c(F)c2)CCN1C(C)=O (stereo partly drawn) [Example 407, (S)-1-Acetyl-4-[3-fluoro-4-((3S)-methyl-1,1-dioxo-6-phenyl-[1,2]thiazinan-2-ylmethyl)-phenyl]-piperazine-2-carboxylic acid methoxy-amide]
37 | 447 | COC(=O)C1(n2cnnc2)CCN(c2ccc(CN3[C@@H](C)CCC(c4ccccc4)S3(=O)=O)c(F)c2)CC1 (stereo partly drawn) [Example 427, 1-[3-Fluoro-4-((3S)-methyl-1,1-dioxo-6-phenyl-[1,2]thiazinan-2-ylmethyl)-phenyl]-4-[1,2,4]triazol-4-yl-piperidine-4-carboxylic acid methyl ester]
38 | 6 | C[C@H]1CCC(c2ccccc2)S(=O)(=O)N1Cc1ccc(N2CCC(c3cn[nH]c3)CC2)cc1 (stereo partly drawn) [Example 414, (3S)-Methyl-6-phenyl-2-{4-[4-(1H-pyrazol-4-yl)-piperidin-1-yl]-benzyl}-[1,2]thiazinane 1,1-dioxide]
39 | 177 | C[C@H]1CCC(c2ccccc2)S(=O)(=O)N1Cc1ccc(N2CCC(n3ncnn3)CC2)cc1 (stereo partly drawn) [Example 423, (3S)-Methyl-6-phenyl-2-[4-(4-tetrazol-2-yl-piperidin-1-yl)-benzyl]-[1,2]thiazinane 1,1-dioxide]
